Reference: ChEMBL document CHEMBL4507286 (2021)

Experiments:
[1] = molecular target: Rhodopsin kinase GRK7 (Homo sapiens) (UniProt Q8WTQ7)
[2] = molecular target: Casein kinase I isoform gamma-3 (Homo sapiens) (UniProt Q9Y6M4)
[3] = molecular target: Serine/threonine-protein kinase N1 (Homo sapiens) (UniProt Q16512)
[4] = molecular target: Leukocyte tyrosine kinase receptor (Homo sapiens) (UniProt P29376)
[5] = molecular target: Tyrosine-protein kinase Fer (Homo sapiens) (UniProt P16591)
[6] = molecular target: Serine/threonine-protein kinase TAO3 (Homo sapiens) (UniProt Q9H2K8)
[7] = molecular target: Cyclin-dependent kinase 5 (Homo sapiens, UniProt Q00535)
[8] = system: Epidermal growth factor receptor (Homo sapiens), P00533 [L861Q]
[9] = molecular target: Serine/threonine-protein kinase tousled-like 1 (Homo sapiens) (UniProt Q9UKI8)
[10] = system: Tyrosine-protein kinase ABL1 (Homo sapiens), P00519 [Y253F]
[11] = system: Phosphatidylinositol 4,5-bisphosphate 3-kinase catalytic subunit alpha isoform (Homo sapiens), P42336 [M1043I]
Chain of Phosphatidylinositol 4,5-bisphosphate 3-kinase catalytic subunit alpha isoform (Homo sapiens), P42336 [M1043I] (P42336 whole entry M1043I, canonical isoform): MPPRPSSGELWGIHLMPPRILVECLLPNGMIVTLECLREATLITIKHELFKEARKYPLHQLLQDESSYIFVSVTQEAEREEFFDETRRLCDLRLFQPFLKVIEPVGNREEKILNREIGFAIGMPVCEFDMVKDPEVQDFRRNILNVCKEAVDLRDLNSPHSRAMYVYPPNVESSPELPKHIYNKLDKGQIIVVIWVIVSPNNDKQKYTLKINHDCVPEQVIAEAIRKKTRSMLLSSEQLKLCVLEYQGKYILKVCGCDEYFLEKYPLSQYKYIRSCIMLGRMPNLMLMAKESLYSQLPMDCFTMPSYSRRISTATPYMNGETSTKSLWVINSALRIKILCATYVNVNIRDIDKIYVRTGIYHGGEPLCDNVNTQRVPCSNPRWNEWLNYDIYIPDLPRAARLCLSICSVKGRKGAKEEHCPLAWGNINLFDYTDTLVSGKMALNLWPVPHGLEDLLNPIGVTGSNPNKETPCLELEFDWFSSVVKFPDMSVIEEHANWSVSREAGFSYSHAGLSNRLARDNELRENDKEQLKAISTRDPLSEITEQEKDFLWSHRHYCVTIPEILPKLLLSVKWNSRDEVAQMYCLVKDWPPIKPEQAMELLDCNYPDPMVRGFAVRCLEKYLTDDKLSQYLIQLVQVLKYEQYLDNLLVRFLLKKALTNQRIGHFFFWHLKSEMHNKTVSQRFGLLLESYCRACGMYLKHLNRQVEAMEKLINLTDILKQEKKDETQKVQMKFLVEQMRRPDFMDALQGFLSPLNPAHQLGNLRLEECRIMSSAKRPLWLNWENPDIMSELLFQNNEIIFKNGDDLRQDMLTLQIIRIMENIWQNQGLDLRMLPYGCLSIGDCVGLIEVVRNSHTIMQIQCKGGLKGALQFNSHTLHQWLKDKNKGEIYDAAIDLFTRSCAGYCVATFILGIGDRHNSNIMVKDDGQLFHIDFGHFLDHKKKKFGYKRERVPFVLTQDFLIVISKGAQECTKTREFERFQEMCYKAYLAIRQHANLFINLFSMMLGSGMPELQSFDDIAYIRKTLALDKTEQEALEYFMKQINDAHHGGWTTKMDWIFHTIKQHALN

[12] = molecular target: Mitogen-activated protein kinase kinase kinase 3 (Homo sapiens) (UniProt Q99759)
[13] = molecular target: Dual specificity protein kinase CLK4 (Homo sapiens, UniProt Q9HAZ1)
[14] = molecular target: Ephrin type-A receptor 7 (Homo sapiens) (UniProt Q15375)
[15] = molecular target: Serine/threonine-protein kinase 32A (Homo sapiens) (UniProt Q8WU08)
[16] = molecular target: Dual specificity tyrosine-phosphorylation-regulated kinase 1B (Homo sapiens) (UniProt Q9Y463)
[17] = molecular target: Dual specificity mitogen-activated protein kinase kinase 6 (Homo sapiens) (UniProt P52564)
[18] = molecular target: Ribosomal protein S6 kinase alpha-5 (Homo sapiens) (UniProt O75582)
[19] = molecular target: GABA-A receptor; anion channel (Rattus norvegicus) (UniProt O09028+P15431+P18506+P18508+P19969+P20236+P23574+P23576+P28471+P28473+P30191+P62813+P63079+P63138+Q91ZM7+Q9ES14); conditions: Compound concentration 10.0 uM
[20] = molecular target: Serine/threonine-protein kinase SBK1 (Homo sapiens) (UniProt Q52WX2)
[21] = molecular target: Mitogen-activated protein kinase kinase kinase 14 (Homo sapiens) (UniProt Q99558)
[22] = molecular target: Macrophage colony-stimulating factor 1 receptor (Homo sapiens) (UniProt P07333)
[23] = molecular target: Mitogen-activated protein kinase 6 (Homo sapiens) (UniProt Q16659)
[24] = molecular target: Ephrin type-B receptor 4 (Homo sapiens) (UniProt P54760)
[25] = molecular target: Mitogen-activated protein kinase kinase kinase kinase 5 (Homo sapiens) (UniProt Q9Y4K4)
[26] = molecular target: Phosphatidylinositol 4,5-bisphosphate 3-kinase catalytic subunit alpha isoform (Homo sapiens) (UniProt P42336)
Chain of Phosphatidylinositol 4,5-bisphosphate 3-kinase catalytic subunit alpha isoform (Homo sapiens) (P42336 whole entry, canonical isoform): as the sequence (P42336 whole entry M1043I, canonical isoform) above, with I1043M counted along it

[27] = molecular target: cAMP-dependent protein kinase catalytic subunit alpha (Homo sapiens) (UniProt P17612)
[28] = molecular target: Ribosomal protein S6 kinase alpha-1 (Homo sapiens) (UniProt Q15418)
[29] = molecular target: Dual specificity mitogen-activated protein kinase kinase 7 (Homo sapiens) (UniProt O14733)
[30] = molecular target: Serine/threonine-protein kinase ULK1 (Homo sapiens) (UniProt O75385)
[31] = molecular target: Mitogen-activated protein kinase kinase kinase 12 (Homo sapiens) (UniProt Q12852)
[32] = molecular target: Activin receptor type-2B (Homo sapiens) (UniProt Q13705)
Chain of Activin receptor type-2B (Homo sapiens) (Q13705 whole entry): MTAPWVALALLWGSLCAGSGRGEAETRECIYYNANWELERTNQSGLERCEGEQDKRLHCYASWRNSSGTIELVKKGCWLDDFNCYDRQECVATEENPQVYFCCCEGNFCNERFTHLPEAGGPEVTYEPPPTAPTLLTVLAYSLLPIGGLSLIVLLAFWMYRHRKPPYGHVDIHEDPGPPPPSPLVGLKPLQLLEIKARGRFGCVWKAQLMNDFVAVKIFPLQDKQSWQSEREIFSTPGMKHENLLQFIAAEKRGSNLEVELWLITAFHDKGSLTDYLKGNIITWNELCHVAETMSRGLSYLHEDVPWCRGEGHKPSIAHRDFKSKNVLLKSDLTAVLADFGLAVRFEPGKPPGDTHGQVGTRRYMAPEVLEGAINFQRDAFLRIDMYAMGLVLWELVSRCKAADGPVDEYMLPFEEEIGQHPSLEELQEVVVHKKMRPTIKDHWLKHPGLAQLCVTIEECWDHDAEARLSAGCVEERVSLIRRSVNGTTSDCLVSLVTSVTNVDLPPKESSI

[33] = molecular target: Hormonally up-regulated neu tumor-associated kinase (Homo sapiens) (UniProt P57058)
[34] = molecular target: Serine/threonine-protein kinase MRCK beta (Homo sapiens) (UniProt Q9Y5S2)
[35] = molecular target: Phosphorylase b kinase regulatory subunit alpha, liver isoform (Homo sapiens) (UniProt P46019)
Chain of Phosphorylase b kinase regulatory subunit alpha, liver isoform (Homo sapiens) (P46019 whole entry, the tested form may be a part, canonical isoform): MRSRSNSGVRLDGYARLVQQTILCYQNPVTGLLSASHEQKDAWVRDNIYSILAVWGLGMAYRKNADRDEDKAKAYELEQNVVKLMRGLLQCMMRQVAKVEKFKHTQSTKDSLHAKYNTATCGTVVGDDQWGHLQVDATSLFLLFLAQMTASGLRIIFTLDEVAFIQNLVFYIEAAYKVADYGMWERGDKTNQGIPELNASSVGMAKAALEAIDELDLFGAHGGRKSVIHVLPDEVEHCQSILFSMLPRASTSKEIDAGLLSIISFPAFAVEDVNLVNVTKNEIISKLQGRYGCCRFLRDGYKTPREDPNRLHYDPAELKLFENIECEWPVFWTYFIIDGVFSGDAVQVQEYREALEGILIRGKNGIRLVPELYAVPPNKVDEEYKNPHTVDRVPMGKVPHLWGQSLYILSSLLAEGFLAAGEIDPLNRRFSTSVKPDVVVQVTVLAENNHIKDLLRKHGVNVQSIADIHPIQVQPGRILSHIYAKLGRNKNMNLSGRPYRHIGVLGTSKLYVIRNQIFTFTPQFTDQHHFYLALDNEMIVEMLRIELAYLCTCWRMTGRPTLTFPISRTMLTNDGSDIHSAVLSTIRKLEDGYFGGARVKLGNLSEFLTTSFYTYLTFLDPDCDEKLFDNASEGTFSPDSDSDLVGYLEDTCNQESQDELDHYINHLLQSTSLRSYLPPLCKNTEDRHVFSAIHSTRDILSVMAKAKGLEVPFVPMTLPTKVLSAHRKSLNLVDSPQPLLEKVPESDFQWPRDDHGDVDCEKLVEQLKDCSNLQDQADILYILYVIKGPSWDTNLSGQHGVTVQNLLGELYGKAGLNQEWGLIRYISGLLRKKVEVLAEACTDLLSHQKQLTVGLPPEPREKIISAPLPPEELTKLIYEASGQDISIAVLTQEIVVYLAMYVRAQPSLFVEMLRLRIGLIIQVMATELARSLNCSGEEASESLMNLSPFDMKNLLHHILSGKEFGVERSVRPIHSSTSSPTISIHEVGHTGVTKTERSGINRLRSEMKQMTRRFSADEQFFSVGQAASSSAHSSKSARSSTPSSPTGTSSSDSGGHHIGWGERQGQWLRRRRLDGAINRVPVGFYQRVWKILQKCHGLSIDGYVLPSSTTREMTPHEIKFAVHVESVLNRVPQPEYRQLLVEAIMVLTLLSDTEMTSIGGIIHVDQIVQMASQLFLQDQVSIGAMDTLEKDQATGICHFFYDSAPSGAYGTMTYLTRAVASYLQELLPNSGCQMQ

[36] = molecular target: Discoidin domain-containing receptor 2 (Homo sapiens) (UniProt Q16832)
[37] = system: Proto-oncogene tyrosine-protein kinase receptor Ret (Homo sapiens), P07949 [V804L]
[38] = molecular target: Tyrosine-protein kinase ABL1 (Homo sapiens) (UniProt P00519)
[39] = molecular target: Hepatocyte growth factor receptor (Homo sapiens) (UniProt P08581)
Chain of Hepatocyte growth factor receptor (Homo sapiens) (P08581 whole entry): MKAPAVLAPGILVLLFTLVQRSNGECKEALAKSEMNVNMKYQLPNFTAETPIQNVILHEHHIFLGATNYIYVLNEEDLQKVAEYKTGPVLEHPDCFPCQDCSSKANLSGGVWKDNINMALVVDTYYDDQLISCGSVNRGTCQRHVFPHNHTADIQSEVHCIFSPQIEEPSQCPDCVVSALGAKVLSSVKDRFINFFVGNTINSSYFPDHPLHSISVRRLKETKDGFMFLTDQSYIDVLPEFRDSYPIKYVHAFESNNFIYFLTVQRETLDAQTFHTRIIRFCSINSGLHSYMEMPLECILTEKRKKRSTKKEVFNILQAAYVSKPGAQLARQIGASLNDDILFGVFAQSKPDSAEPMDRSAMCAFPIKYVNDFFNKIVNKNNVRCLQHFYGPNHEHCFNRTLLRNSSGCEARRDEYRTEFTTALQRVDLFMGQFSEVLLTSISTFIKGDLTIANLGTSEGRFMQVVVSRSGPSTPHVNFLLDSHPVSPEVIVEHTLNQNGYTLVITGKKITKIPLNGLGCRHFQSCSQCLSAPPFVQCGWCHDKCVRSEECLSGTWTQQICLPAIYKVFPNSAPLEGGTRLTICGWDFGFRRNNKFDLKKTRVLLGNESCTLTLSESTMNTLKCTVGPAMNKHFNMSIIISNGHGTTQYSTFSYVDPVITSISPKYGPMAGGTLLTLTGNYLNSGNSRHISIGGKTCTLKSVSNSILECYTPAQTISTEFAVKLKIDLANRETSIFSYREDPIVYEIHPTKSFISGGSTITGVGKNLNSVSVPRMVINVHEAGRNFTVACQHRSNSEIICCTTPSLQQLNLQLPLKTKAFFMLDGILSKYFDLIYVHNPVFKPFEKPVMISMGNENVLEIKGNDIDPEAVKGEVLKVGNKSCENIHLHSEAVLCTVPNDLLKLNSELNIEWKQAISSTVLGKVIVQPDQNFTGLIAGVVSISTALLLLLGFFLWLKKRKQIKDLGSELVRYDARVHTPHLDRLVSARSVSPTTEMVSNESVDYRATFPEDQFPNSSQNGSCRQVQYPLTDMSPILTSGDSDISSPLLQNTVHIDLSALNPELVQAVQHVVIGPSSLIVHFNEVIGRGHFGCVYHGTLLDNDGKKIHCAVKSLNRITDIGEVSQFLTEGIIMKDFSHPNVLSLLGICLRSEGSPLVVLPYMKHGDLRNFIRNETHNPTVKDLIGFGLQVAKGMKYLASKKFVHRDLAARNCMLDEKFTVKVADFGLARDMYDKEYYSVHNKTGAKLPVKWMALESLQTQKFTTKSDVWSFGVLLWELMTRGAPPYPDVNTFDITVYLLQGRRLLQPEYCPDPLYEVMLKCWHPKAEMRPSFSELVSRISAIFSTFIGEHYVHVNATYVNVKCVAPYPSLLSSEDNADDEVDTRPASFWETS

[40] = molecular target: Dual specificity tyrosine-phosphorylation-regulated kinase 2 (Homo sapiens) (UniProt Q92630)
[41] = molecular target: Cytoplasmic tyrosine-protein kinase BMX (Homo sapiens) (UniProt P51813)
[42] = molecular target: Activin receptor type-1 (Homo sapiens) (UniProt Q04771)
[43] = molecular target: Serine/threonine-protein kinase Nek9 (Homo sapiens) (UniProt Q8TD19)
[44] = molecular target: Myosin-IIIa (Homo sapiens) (UniProt Q8NEV4)
[45] = Compound concentration 100.0 nM
[46] = Compound concentration 1000.0 nM

Chain of Leukocyte tyrosine kinase receptor (Homo sapiens) (P29376 whole entry): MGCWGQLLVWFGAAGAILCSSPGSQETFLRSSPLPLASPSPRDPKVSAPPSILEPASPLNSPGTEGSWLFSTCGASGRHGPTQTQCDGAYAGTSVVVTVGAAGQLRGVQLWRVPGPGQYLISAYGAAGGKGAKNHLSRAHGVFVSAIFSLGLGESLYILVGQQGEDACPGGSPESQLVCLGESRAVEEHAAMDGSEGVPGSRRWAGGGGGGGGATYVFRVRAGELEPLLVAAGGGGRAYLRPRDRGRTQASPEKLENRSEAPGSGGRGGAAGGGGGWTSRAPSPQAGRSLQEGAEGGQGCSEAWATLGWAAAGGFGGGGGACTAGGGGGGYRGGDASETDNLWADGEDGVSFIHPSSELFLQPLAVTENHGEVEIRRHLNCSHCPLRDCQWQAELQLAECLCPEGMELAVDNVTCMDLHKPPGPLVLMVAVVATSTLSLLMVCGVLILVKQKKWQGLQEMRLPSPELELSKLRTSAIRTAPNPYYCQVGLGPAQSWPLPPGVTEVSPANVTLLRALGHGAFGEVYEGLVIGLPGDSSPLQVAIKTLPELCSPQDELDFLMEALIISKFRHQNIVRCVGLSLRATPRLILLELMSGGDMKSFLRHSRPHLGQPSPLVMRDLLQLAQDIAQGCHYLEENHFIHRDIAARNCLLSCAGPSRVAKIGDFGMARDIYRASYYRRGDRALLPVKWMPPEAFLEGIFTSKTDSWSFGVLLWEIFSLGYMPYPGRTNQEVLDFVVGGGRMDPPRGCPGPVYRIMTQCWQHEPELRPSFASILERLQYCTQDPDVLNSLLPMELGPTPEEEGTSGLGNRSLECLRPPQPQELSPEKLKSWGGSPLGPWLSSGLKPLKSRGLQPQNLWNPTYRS

C[C@@H](NC(=O)Nc1cc2[nH]ncc2c(CO)n1)c1ccccc1 [ERKi]
residual activity [1, 45]: 81.4%
residual activity [2, 45]: 87.9%
residual activity [3, 45]: 89.3%
residual activity [4, 45]: 98.5%
residual activity [5, 45]: 100%
residual activity [6, 45]: 73%
residual activity [7, 45]: 100%
residual activity [8, 45]: 100%
residual activity [9, 45]: 80.3%
residual activity [10, 45]: 76.2%
residual activity [11, 45]: 100%
residual activity [12, 45]: 82.1%
residual activity [13, 45]: 66.6%
residual activity [14, 45]: 91.1%
residual activity [15, 45]: 100%
residual activity [16, 45]: 95.9%
residual activity [17, 45]: 81.4%
residual activity [18, 45]: 82.7%
inhibition [19]: 46.2%
residual activity [20, 45]: 53.3%
residual activity [21, 45]: 100%
residual activity [22, 45]: 89.3%
residual activity [23, 45]: 95.2%
residual activity [24, 45]: 87.6%
residual activity [25, 45]: 86.8%
residual activity [26, 45]: 86%
residual activity [27, 45]: 91.8%
residual activity [28, 45]: 100%
residual activity [29, 45]: 89.4%
residual activity [30, 45]: 48.6%
residual activity [31, 45]: 97.4%
residual activity [32, 45]: 87.6%
residual activity [33, 45]: 100%
residual activity [34, 45]: 99.8%
residual activity [35, 45]: 78.8%
residual activity [36, 45]: 98.5%
residual activity [37, 45]: 100%
residual activity [38, 45]: 85.9%
residual activity [39, 45]: 94.9%
residual activity [40, 45]: 59.3%
residual activity [41, 45]: 94.3%
residual activity [42, 45]: 98.3%
residual activity [43, 45]: 77.5%
residual activity [44, 45]: 100%

C[C@H](NC(=O)Nc1cc2[nH]ncc2c(CO)n1)c1ccccn1 [ERKi-NC]
residual activity [1, 46]: 100%
residual activity [2, 46]: 100%
residual activity [3, 46]: 93.1%
residual activity [4, 46]: 100%
residual activity [5, 46]: 88.8%
residual activity [6, 46]: 100%
residual activity [7, 46]: 100%
residual activity [8, 46]: 100%
residual activity [9, 46]: 100%
residual activity [10, 46]: 100%
residual activity [11, 46]: 37.7%
residual activity [12, 46]: 100%
residual activity [13, 46]: 78.8%
residual activity [14, 46]: 97.3%
residual activity [15, 46]: 100%
residual activity [16, 46]: 57.6%
residual activity [17, 46]: 100%
residual activity [18, 46]: 100%
inhibition [19]: 20.2%
residual activity [20, 46]: 100%
residual activity [21, 46]: 85%
residual activity [22, 46]: 100%
residual activity [23, 46]: 100%
residual activity [24, 46]: 100%
residual activity [25, 46]: 99.6%
residual activity [26, 46]: 100%
residual activity [27, 46]: 87.7%
residual activity [28, 46]: 100%
residual activity [29, 46]: 94.1%
residual activity [30, 46]: 100%
residual activity [31, 46]: 67.9%
residual activity [32, 46]: 86.2%
residual activity [33, 46]: 100%
residual activity [34, 46]: 100%
residual activity [35, 46]: 100%
residual activity [36, 46]: 94.3%
residual activity [37, 46]: 100%
residual activity [38, 46]: 51.5%
residual activity [39, 46]: 100%
residual activity [40, 46]: 100%
residual activity [41, 46]: 91.7%
residual activity [42, 46]: 81.8%
residual activity [43, 46]: 100%
residual activity [44, 46]: 100%
